Measurements: PubChem BioAssay (NCI)
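Grown in 96-well plates, cells were treated for 48 hours with each compound at five concentrations. Insufficient inhibition: endpoint recorded as highest concentration tested. The concentration for full growth arrest is given as TGI.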

What was measured:
Test in all cases: DTP human tumour cell line panel, 48 h
[1] = tested on: KM12 colon
[2] = tested on: M19-MEL melanoma
[3] = tested on: NCI-H226 lung
[4] = tested on: XF 498 CNS
[5] = tested on: SK-MEL-28 melanoma
[6] = tested on: SNB-19 CNS
[7] = tested on: UACC-257 melanoma
[8] = tested on: HL-60(TB) leukemia
[9] = tested on: EKVX NSCLC
[10] = tested on: NCI-H522 lung
[11] = tested on: UO-31 renal
[12] = tested on: ACHN renal
[13] = tested on: OVCAR-8 ovarian
[14] = tested on: SW-620 colon
[15] = tested on: SN12C renal
[16] = tested on: IGROV1 ovarian
[17] = tested on: LXFL 529 NSCLC
[18] = tested on: U251 CNS
[19] = tested on: SF-295 CNS
[20] = tested on: MALME-3M melanoma
[21] = tested on: KM20L2 colon
[22] = tested on: HCT-116 colon
[23] = tested on: NCI-H23 lung
[24] = tested on: DMS 114 small cell lung
[25] = tested on: RXF 393 renal
[26] = tested on: M14 melanoma
[27] = tested on: CCRF-CEM leukemia
[28] = tested on: OVCAR-3 ovarian
[29] = tested on: 786-0 renal
[30] = tested on: LOX IMVI melanoma
[31] = tested on: MOLT-4 leukemia
[32] = tested on: HOP-92 NSCLC
[33] = tested on: SNB-75 CNS
[34] = tested on: HCT-15 colon
[35] = tested on: DMS 273 small cell lung
[36] = tested on: COLO 205 colon
[37] = tested on: SF-268 CNS
[38] = tested on: SK-OV-3 ovarian
[39] = tested on: SK-MEL-5 melanoma
[40] = tested on: SF-539 CNS
[41] = tested on: UACC-62 melanoma
[42] = tested on: DLD-1 colon
[43] = tested on: A549 NSCLC
[44] = tested on: HOP-18 NSCLC
[45] = tested on: A498 renal
[46] = tested on: OVCAR-4 ovarian
[47] = tested on: CAKI-1 renal
[48] = tested on: HCC-2998 colon
[49] = tested on: NCI-H460 lung
[50] = tested on: HT29 colon
[51] = tested on: K-562 leukemia
[52] = tested on: SNB-78 CNS
[53] = tested on: SR leukemia
[54] = tested on: SK-MEL-2 melanoma
[55] = tested on: OVCAR-5 ovarian
[56] = tested on: TK-10 renal
[57] = tested on: HOP-62 NSCLC
[58] = tested on: MDA-MB-435
[59] = tested on: DU-145 prostate
[60] = tested on: T-47D breast
[61] = tested on: RPMI-8226 leukemia
[62] = tested on: HS 578T breast
[63] = tested on: PC-3 prostate
[64] = tested on: MDA-N
[65] = tested on: NCI/ADR-RES ovarian
[66] = tested on: MDA-MB-231 breast
[67] = tested on: BT-549 breast
[68] = tested on: MCF7 breast

## CCOc1ccccc1Nc1nc(C)c(C(=O)CC(=O)C(=O)Nc2ccccc2)s1
[1]
  TGI: > 100 µM
[2]
  TGI: > 100 µM
[3]
  TGI: > 100 µM
[4]
  TGI: > 100 µM
[5]
  TGI: > 100 µM
[6]
  TGI: > 100 µM
[7]
  TGI: > 100 µM
[8]
  TGI: 58.1 µM
[9]
  TGI: > 100 µM
[10]
  TGI: 84.8 µM
[11]
  TGI: > 100 µM
[12]
  TGI: > 100 µM
[13]
  TGI: > 100 µM
[14]
  TGI: > 100 µM
[15]
  TGI: > 100 µM
[16]
  TGI: > 100 µM
[17]
  TGI: > 100 µM
[18]
  TGI: > 100 µM
[19]
  TGI: > 100 µM
[20]
  TGI: > 100 µM
[21]
  TGI: > 100 µM
[22]
  TGI: > 100 µM
[23]
  TGI: > 100 µM
[24]
  TGI: > 100 µM
[25]
  TGI: > 100 µM
[26]
  TGI: > 100 µM
[27]
  TGI: > 100 µM
[28]
  TGI: 63.3 µM
[29]
  TGI: > 100 µM
[30]
  TGI: > 100 µM
[31]
  TGI: 78.3 µM
[32]
  TGI: > 100 µM
[33]
  TGI: 88.6 µM
[34]
  TGI: > 100 µM
[35]
  TGI: > 100 µM
[36]
  TGI: > 100 µM
[37]
  TGI: > 100 µM
[38]
  TGI: > 100 µM
[39]
  TGI: > 100 µM
[40]
  TGI: > 100 µM
[41]
  TGI: > 100 µM
[42]
  TGI: > 100 µM
[43]
  TGI: > 100 µM
[44]
  TGI: > 100 µM
[45]
  TGI: > 100 µM
[46]
  TGI: > 100 µM
[47]
  TGI: > 100 µM
[48]
  TGI: > 100 µM
[49]
  TGI: > 100 µM
[50]
  TGI: > 100 µM
[51]
  TGI: > 100 µM
[52]
  TGI: > 100 µM
[53]
  TGI: > 100 µM
[54]
  TGI: > 100 µM
[55]
  TGI: > 100 µM
[56]
  TGI: > 100 µM
[57]
  TGI: > 100 µM

## CC[N+]1(C)CCC(O)(/C=C/c2ccccc2)C(C(=O)/C=C/c2ccccc2)C1 (centres undefined)
[1]
  TGI: 10.2 µM
[2]
  TGI: 27.3 µM
[58]
  TGI: 31.7 µM
[3]
  TGI: 29.7 µM
[4]
  TGI: 26.7 µM
[59]
  TGI: 39.1 µM
[5]
  TGI: 18.9 µM
[6]
  TGI: 29.7 µM
[7]
  TGI: 24.8 µM
[8]
  TGI: 8.48 µM
[9]
  TGI: 51.6 µM
[10]
  TGI: 3.78 µM
[11]
  TGI: 29.5 µM
[12]
  TGI: 25.4 µM
[13]
  TGI: 43 µM
[14]
  TGI: 6.45 µM
[15]
  TGI: 18 µM
[16]
  TGI: 37.9 µM
[17]
  TGI: 6.7 µM
[18]
  TGI: 22.5 µM
[19]
  TGI: 33.4 µM
[20]
  TGI: 26.9 µM
[21]
  TGI: 49.3 µM
[60]
  TGI: 40.4 µM
[61]
  TGI: 5.76 µM
[62]
  TGI: > 100 µM
[22]
  TGI: 38 µM
[23]
  TGI: 35 µM
[24]
  TGI: 16.9 µM
[25]
  TGI: 19.7 µM
[26]
  TGI: 25.8 µM
[27]
  TGI: 10.8 µM
[28]
  TGI: 28 µM
[63]
  TGI: 29.6 µM
[29]
  TGI: 13.9 µM
[30]
  TGI: 7.79 µM
[31]
  TGI: 7.11 µM
[32]
  TGI: 31.4 µM
[33]
  TGI: 34.7 µM
[34]
  TGI: 15.5 µM
[64]
  TGI: 23.7 µM
[35]
  TGI: 47.3 µM
[36]
  TGI: 8.19 µM
[37]
  TGI: 60.5 µM
[38]
  TGI: 32.9 µM
[65]
  TGI: > 100 µM
[39]
  TGI: 32.7 µM
[40]
  TGI: 19 µM
[66]
  TGI: 31 µM
[41]
  TGI: 33.4 µM
[67]
  TGI: 34.5 µM
[42]
  TGI: 37.3 µM
[43]
  TGI: 45.7 µM
[44]
  TGI: 31.3 µM
[45]
  TGI: 38.9 µM
[46]
  TGI: 43.7 µM
[68]
  TGI: > 23.7 µM
[47]
  TGI: 3.42 µM
[48]
  TGI: 30.8 µM
[49]
  TGI: 43.5 µM
[50]
  TGI: 27.5 µM
[51]
  TGI: 10.8 µM
[52]
  TGI: > 78.7 µM
[53]
  TGI: 6.68 µM
[54]
  TGI: 39.5 µM
[55]
  TGI: 36.1 µM
[56]
  TGI: 18.3 µM
[57]
  TGI: 35.5 µM

## COC(=O)c1c(OC(=O)c2ccccc2)noc1CC(=O)OC1C=CCCC1 (centres undefined)
[1]
  TGI: > 100 µM
[3]
  TGI: > 100 µM
[5]
  TGI: > 100 µM
[6]
  TGI: > 100 µM
[7]
  TGI: > 100 µM
[8]
  TGI: > 100 µM
[10]
  TGI: > 100 µM
[11]
  TGI: > 100 µM
[12]
  TGI: > 100 µM
[13]
  TGI: > 100 µM
[14]
  TGI: > 100 µM
[15]
  TGI: > 100 µM
[16]
  TGI: > 100 µM
[17]
  TGI: > 100 µM
[18]
  TGI: > 100 µM
[20]
  TGI: > 100 µM
[21]
  TGI: > 100 µM
[61]
  TGI: > 100 µM
[22]
  TGI: > 100 µM
[24]
  TGI: > 100 µM
[25]
  TGI: > 100 µM
[26]
  TGI: > 100 µM
[27]
  TGI: > 100 µM
[28]
  TGI: > 100 µM
[29]
  TGI: > 100 µM
[31]
  TGI: > 100 µM
[33]
  TGI: > 100 µM
[34]
  TGI: > 100 µM
[35]
  TGI: > 100 µM
[36]
  TGI: > 100 µM
[37]
  TGI: > 100 µM
[38]
  TGI: > 100 µM
[39]
  TGI: 81.7 µM
[40]
  TGI: > 100 µM
[41]
  TGI: > 100 µM
[42]
  TGI: > 100 µM
[43]
  TGI: > 100 µM
[44]
  TGI: > 100 µM
[45]
  TGI: > 100 µM
[46]
  TGI: > 100 µM
[47]
  TGI: > 100 µM
[48]
  TGI: > 100 µM
[49]
  TGI: > 100 µM
[51]
  TGI: > 100 µM
[52]
  TGI: > 100 µM
[53]
  TGI: > 100 µM
[54]
  TGI: > 100 µM
[56]
  TGI: > 100 µM
[57]
  TGI: > 100 µM
